Like-named read-outs stand apart in the source and are kept apart here.
T1: human PRLR extracellular domain (hPRLR-MMH) (Homo sapiens, UniProt P16471)
T1 construct: human PRLR extracellular domain expressed with a C-terminal myc-myc-hexahistidine tag; myc-myc-hexahistidine (MMH) (C); made in house
T1 sequence (P16471 25-234 limits assumed): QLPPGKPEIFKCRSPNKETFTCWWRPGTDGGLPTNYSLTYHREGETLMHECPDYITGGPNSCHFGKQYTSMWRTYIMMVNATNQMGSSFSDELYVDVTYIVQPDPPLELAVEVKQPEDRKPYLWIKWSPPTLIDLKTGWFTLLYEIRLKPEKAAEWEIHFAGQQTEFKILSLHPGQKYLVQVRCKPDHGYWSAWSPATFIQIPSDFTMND

B1: H1H6958N2 (antibody, V domains shown)
VH: QVQLVESGGGVVQPGRSLRLSCGASGFTFRNYGMQWVRQGPGKGLEWVTLISFDGNDKYYADSVKGRFTISRDNSKNTLFLQMNSLRTEDTAVYYCARGGDFDYWGQGTLVTVSS
VL: DIQMTQSPSSLSASVGDRVTITCRASQDIRKDLGWYQQKPGKAPKRLIYAASSLHSGVPSRFSGSGSGTEFTLTISSLQPEDFATYYCLQHNSYPMYTFGQGTKLEIK

Assays:
[1] = tested on: Ovcar3 (Muc16+) cells; assay: In vitro cytotoxicity assay (CCK8 viability), Ovcar3 cells; format: cell-based
Protocol: (§1) In this Example, the ability of various antibody-drug conjugates or their associated payloads to kill antigen-expressing tumor cells in vitro was assessed.
(§2) Ovcar3 (Muc16+) or C4-2 (PSMA+) cells were seeded in 96 well plates at 3000 (C42) cells per well in complete growth media and grown overnight. For cell viability curves, serially diluted conjugates or payloads were added to the cells at final concentrations ranging from 300 nM to 5 pM and incubated for 3 days. To measure viability, cells were incubated with CCK8 (Dojindo) for the final 1-3 hours and the absorbance at 450 nm (OD450) was determined on a Victor (Perkin Elmer). Background OD450 levels determined from digitonin ([…]) treated cells were subtracted from all wells and viability is expressed as a percentage of the untreated controls. IC50 values were determined from a four-parameter logistic equation over a 10-point response curve (GraphPad Prism). All conjugate curves and IC50 values are corrected for payload equivalents.

[2] = tested on: T47D ductal carcinoma line (PRLR+); assay: In vitro cytotoxicity assay (CellTiter-Glo), T47D cells; format: cell-based, human; details: for IC50: 5 days, corrected for payload equivalents, read-out: IC50 (cytotoxicity of T47D cells); for maximum percent killing: T47D cells
Protocol: The present example provides cytotoxicity assays for conjugates provided herein. To evaluate the ability of anti-PRLR antibodies conjugated with 63, 60, 77, and 78 to kill a PRLR expressing cell line, an in vitro cytotoxicity assay using a T47D ductal carcinoma line (ATCC, #HTB-133), which was previously determined to express >27,000 copies of human PRLR at its cell surface, was utilized.
For the assay, T47D cells were seeded onto white 96 well plates at 2,000 cells/well in media containing DMEM supplemented with 10% FBS, NEAA, and pencillin/streptomycinin (complete media). They were grown overnight at 37° C. in 5% CO2. To determine cell viability curves, the following day antibody drug conjugates, unconjugated antibodies, or free payloads were added to the cells at final serial dilutions ranging from 100 nM to 0.01 nM in complete medium and then incubated for an additional 5 days. Luciferase activity was detected after the addition of CellTiter-Glo™ reagent (Promega, G7571) to each well, which contains reagents to lyse the remaining viable cells to release their ATP, ATPase inhibitors to prevent degradation of the ATP, as well as luciferin and luciferase to catalyse the luminescent reaction. Viable cells prior to addition of CellTiter-Glo will be the only source of ATP since the dead cells in culture will not synthesis ATP and any of their released ATP will be destroyed via endogenous ATPases. Relative light units (RLUs) were measured on a Victor luminometer (PerkinElmer) and the results were determined using a four-parameter logistic equation over a 10-point response curve (GraphPad Prism). All measured values and calculated IC50 values were corrected for payload equivalents. All IC50 values are expressed in nM concentration and percent kill is reported for the highest concentration tested.

[3] = tested on: C4-2 (PSMA+) cells; assay: In vitro cytotoxicity assay (CCK8 viability), C4-2 cells; format: cell-based
Protocol: as §1, §2

[4] = molecular target: T1, human PRLR extracellular domain (hPRLR-MMH); assay: Surface plasmon resonance (Biacore 3000) binding kinetics; details: 25° C.
Protocol: Equilibrium dissociation constants (KD values) for human PRLR binding to purified anti-PRLR antibodies that were either unmodified H1H6958N2, PRLR-Q, and PRLR-Q-63 were determined using a real-time surface plasmon resonance biosensor using a Biacore 3000 instrument. The Biacore sensor surface was first derivatized by amine coupling with a monoclonal mouse anti-human Fc antibody (GE, #BR-1008-39) to capture anti-PRLR monoclonal antibodies. All binding studies were performed in 0.01M HEPES pH 7.4, 0.15M NaCl, 3 mM EDTA, and 0.05% v/v Surfactant Tween-20 (HBS-ET running buffer) at 25° C. and 37° C. Different concentrations of human PRLR extracellular domain expressed with a C-terminal myc-myc-hexahistidine tag (hPRLR-MMH; SEQ ID NO: 401 as described in patent application WO 2015026907 A1), in HBS-ET running buffer ([…]) were injected over the anti-PRLR antibody captured surface for 4 minutes at a flow rate of 50 μL/minute and their dissociation in HBS-ET running buffer was monitored for 8 minutes. Kinetic association rate constant (ka) and dissociation rate constant (kd) were determined by fitting the real-time sensorgrams to a 1:1 binding model using Scrubber 2.0c curve fitting software. Binding dissociation equilibrium constants (KD) and dissociative half-lives (t½) were calculated from the kinetic rate constants as: […]

[5] = Table 2, payloads only, read-out: Ovcar3 IC50
[6] = Table 5, payloads only, read-out: Ovcar3 IC50
[7] = Table 2, payloads only, read-out: C4-2 IC50
[8] = Table 5, payloads only, read-out: C4-2 IC50

Row | Molecule | IC50 ([1]; Ovcar-3 cells, 3 days, conjugate values corrected for payload equivalents, read-out: IC50) [nM] | Ovcar3 % kill ([1]; Table 2, payloads only) [%] | IC50 [1, 5] [nM] | Ovcar3 % kill ([1]; Table 5, payloads only) [%] | IC50 [1, 6] [nM] | IC50 [2] [nM] | maximum percent killing ([2]; highest concentration tested) [%] | IC50 ([3]; C4-2 cells, 3 days, conjugate values corrected for payload equivalents, read-out: IC50) [nM] | C4-2 % kill ([3]; Table 2, payloads only) [%] | IC50 [3, 7] [nM] | C4-2 % kill ([3]; Table 5, payloads only) [%] | IC50 [3, 8] [nM] | T47D % kill ([2]; Table 5, payloads only, highest concentration tested) [%] | ka [4] [M⁻¹ s⁻¹] | kd [4] [s⁻¹] | 100 nM hPRLR-MMH Bound (RU) ([4]; antibody captured on anti-human Fc surface) | Kd ([4]; calculated from kinetic rate constants, read-out: KD) [nM] | Kd ([4]; read-out: KD value) [nM]
1 | COc1cc2cc(c1Cl)N(C)C(=O)C[C@H](OC(=O)[C@H](C)N(C)C(=O)c1ccc(N)cc1)[C@]1(C)O[C@H]1[C@H](C)[C@@H]1C[C@@](O)(NC(=O)O1)[C@H](OC)/C=C/C=C(\C)C2 [Compound 27, Maytansin-N-methyl-L-alanine-4-aminobenzamide] | 0.06 | 92 | 0.09 | 92 | 0.09 | 0.1 | 67 | 0.2 | 84 | 0.2 | 84 | 0.2 | – | – | – | – | – | –
2 | COc1cc2cc(c1Cl)N(C)C(=O)C[C@H](OC(=O)[C@H](C)N(C)C(=O)c1ccc(N)cc1F)[C@]1(C)O[C@H]1[C@H](C)[C@@H]1C[C@@](O)(NC(=O)O1)[C@H](OC)/C=C/C=C(\C)C2 [Compound 29, Maytansin-N-methyl-L-alanine-(2-fluoro-4-amino)benzamide] | – | 93 | 0.13 | 93 | 0.13 | 0.07 | 67 | – | 83 | 0.27 | 83 | 0.27 | 67 | – | – | – | – | –
3 | B1 | – | – | – | – | – | – | – | – | – | – | – | – | – | 417000 | 0.000454 | 38 | 1.09 | 1.09
